Reference: patent US12398154B2, “Azaquinazoline pan-KRas inhibitors” (Mirati Therapeutics, Inc., priority 2020, dated 2025)

Legend:
KRas G12D = KRas G12D (Homo sapiens, UniProt P01116, G12D); experiment: biochemical;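 note: TR-FRET displacement binding assay on KRas, read after a one-hour incubation at room temperature, IC50 fitted from percent-of-control values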
Method: (§1) The ability of a compound to bind to KRas was measured using a TR-FRET displacement assay. […] After a 60-minute incubation at room temperature, the reaction was measured using a BMG LABTECH CLARIO star Plus via TR-FRET. […] The POC values were fit to a 4-parameter IC50 equation and the IC50 value reported.

KRas G12V = KRas G12V (Homo sapiens, UniProt P01116, G12V); experiment: biochemical;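 note: KRas binding measured by TR-FRET displacement at room temperature, IC50 fitted from percent of control values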
Method: as §1

KRas G12R = KRas G12R (Homo sapiens, UniProt P01116, G12R); experiment: biochemical;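 note: TR-FRET displacement assay of compound binding to KRas, read after one hour at room temperature, potency from a four-parameter fit of percent-of-control values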
Method: as §1

pERK in MKN1 cells = experiment: Inhibition of KRas phosphorylation of ERK (Cisbio HTRF pERK assay); details: Homo sapiens, MKN-1, 3 h, read-out: Inhibition (HTRF IC50) of KRas-mediated Phosphorylation of ERK, MKN1
pERK in PSN1 cells = experiment: as above; details: Homo sapiens, PSN1, 3 h, read-out: Inhibition (HTRF IC50) of KRas-mediated Phosphorylation of ERK, PSN1
pERK in ASPC1 cells = experiment: as above; details: Homo sapiens, ASPC1, read-out: Inhibition (HTRF IC50) of KRas-mediated Phosphorylation of ERK, AsPC-1
pERK in H727 cells = experiment: as above; details: Homo sapiens, NCI-H727, read-out: Inhibition (HTRF IC50) of KRas-mediated Phosphorylation of ERK, H727
pERK in A549 cells = experiment: as above; details: Homo sapiens, A549, read-out: Inhibition (HTRF IC50) of KRas-mediated Phosphorylation of ERK, A549
Method: To harvest cells from flask using 0.05% Trypsin/EDTA solution. Add 10 mL of media to stop trypsinizing. Pipette the cells into a conical bottom 50 mL centrifuge tube and centrifuge 5 min×1000 rpm. • 2. Re-suspend the cell pellet in media, take a cell count, and then adjust the cell density using fresh media. • 3. Seed 6,000 cells into cell culture plate with 50 μL media. […] Incubate cell plate overnight in a 37° C., 5% CO2 incubator. • Compound titrations • 1. Use Tecan to complete the compound addition. Compounds start from 10 uM top, 3-fold dilution, and 10 doses. The final DMSO concentration is 0.8%. Dispensed 0.2 uM Trametinib as Min control. • 2. Incubate cell plate for 3 hrs in the incubator. • Detection with cisbio pERK HTRF kit • 1. […] At the end of the compound treatment, flick-off the media. • 3. Add 35 μL of lysis buffer per well using a Multidrop Combi. Then place on a plate agitator shaking at 300 rpm at 4° C. for 40 mins. • 4. Make up the HTRF antibody buffer. For each assay plate, mix 50 μL of d2-conjugate antibody with 950 μL of detection buffer. Similarly, mix 50 μL of Cryptate antibody with 950 μL of detection buffer. Then mix the two diluted antibodies together. • 5. Dispense 3.4 μL the antibody buffer to wells of an empty assay plate. Seal the plate and centrifuge plate 30 sec×1000 rpm. • 6. At the end of the 4° C. lysis, centrifuge the lysate plates 3 mins×1500 rpm. • 7. Use the Bravo to transfer 13.6 μL of lysate from cell culture plate to assay plate.
Then incubate assay plate for 2 hrs at room temperature. […] At the end of incubation, read plate on the Envision after centrifuging plate 30 sec× • 1000 rpm.

pERK in H460 cells = experiment: as above; details: Homo sapiens, NCI-H460, read-out: Inhibition (HTRF IC50) of KRas-mediated Phosphorylation of ERK, H460
pERK in HCT116 cells = experiment: as above; details: Homo sapiens, HCT-116, read-out: Inhibition (HTRF IC50) of KRas-mediated Phosphorylation of ERK, HCT116
pERK in H358 cells = experiment: as above; details: Homo sapiens, NCI-H358, read-out: Inhibition (HTRF IC50) of KRas-mediated Phosphorylation of ERK, H358

Chain of KRas G12R (P01116 1-169 isoform P01116-2 G12R): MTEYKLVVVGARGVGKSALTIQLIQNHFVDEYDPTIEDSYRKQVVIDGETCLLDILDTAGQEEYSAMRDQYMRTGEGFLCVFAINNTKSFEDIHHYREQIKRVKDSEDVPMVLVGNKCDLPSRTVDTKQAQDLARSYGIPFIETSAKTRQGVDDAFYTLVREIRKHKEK
Chain of KRas G12D (P01116 1-169 isoform P01116-2 G12D): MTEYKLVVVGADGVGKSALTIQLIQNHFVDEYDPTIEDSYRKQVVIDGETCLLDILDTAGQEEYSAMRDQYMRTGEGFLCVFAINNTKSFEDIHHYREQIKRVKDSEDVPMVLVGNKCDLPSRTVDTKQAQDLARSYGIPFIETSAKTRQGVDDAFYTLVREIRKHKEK
Chain of KRas G12V (P01116 1-169 isoform P01116-2 G12V): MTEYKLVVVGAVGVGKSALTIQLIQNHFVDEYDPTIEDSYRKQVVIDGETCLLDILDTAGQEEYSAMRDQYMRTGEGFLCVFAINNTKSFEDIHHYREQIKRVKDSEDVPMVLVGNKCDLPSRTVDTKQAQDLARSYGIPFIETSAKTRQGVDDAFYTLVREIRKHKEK

Compound	IC50 (KRas G12D)	IC50 (KRas G12V)	IC50 (KRas G12R)	IC50 (pERK in MKN1 cells)	IC50 (pERK in PSN1 cells)	IC50 (pERK in ASPC1 cells)	IC50 (pERK in H727 cells)	IC50 (pERK in A549 cells)	IC50 (pERK in H460 cells)	IC50 (pERK in HCT116 cells)	IC50 (pERK in H358 cells)
Oc1cc(-c2ncc3c(N4CCCC5(CC(O)C5)C4)nc(OC[C@@]45CCCN4C[C@H](F)C5)nc3c2F)c2c(Cl)c(F)ccc2c1 (stereo partly drawn) [Example 425, 6-(7-(8-chloro-7-fluoro-3-hydroxynaphthalen-1-yl)-8-fluoro-2-(((2R,7aS)-2-fluorohexahydro-1H-pyrrolizin-7a-yl)methoxy)pyrido[4,3-d]pyrimidin-4-yl)-6-azaspiro[3.5]nonan-2-ol]	≤ 2 nM	≤ 2 nM	≤ 2 nM	5 nM	921 nM	42 nM	37 nM	54 nM	99 nM	73 nM	12 nM
CN(C)C(=O)c1cc2n(n1)CCCN(c1nc(OC[C@@]34CCCN3C[C@H](F)C4)nc3c(F)c(-c4cc(O)cc5ccc(F)c(Cl)c45)ncc13)C2 [Example 427, 5-(7-(8-chloro-7-fluoro-3-hydroxynaphthalen-1-yl)-8-fluoro-2-(((2R,7aS)-2-fluorohexahydro-1H-pyrrolizin-7a-yl)methoxy)pyrido[4,3-d]pyrimidin-4-yl)-N,N-dimethyl-5,6,7,8-tetrahydro-4H-pyrazolo[1,5-a][1,4]diazepine-2-carboxamide]	≤ 2 nM	≤ 2 nM	≤ 2 nM	84 nM	7680 nM	32 nM	59 nM	379 nM	878 nM	916 nM	52 nM

More lines, now with the values ahead:

IC50 (KRas G12D)	IC50 (KRas G12V)	IC50 (KRas G12R)	IC50 (pERK in MKN1 cells)	IC50 (pERK in PSN1 cells)	IC50 (pERK in ASPC1 cells)	IC50 (pERK in H727 cells)	IC50 (pERK in A549 cells)	IC50 (pERK in H460 cells)	IC50 (pERK in HCT116 cells)	IC50 (pERK in H358 cells)	Compound
≤ 2 nM	≤ 2 nM	≤ 2 nM	67 nM	≥ 10000 nM	61 nM	456 nM	865 nM	1570 nM	2840 nM	180 nM	CCc1c(F)ccc2cc(O)cc(-c3ncc4c(N5CCCn6nc(C(=O)N7CCN(C)CC7)cc6C5)nc(OC[C@@]56CCCN5C[C@H](F)C6)nc4c3F)c12 [Example 477, (5-(7-(8-ethyl-7-fluoro-3-hydroxynaphthalen-1-yl)-8-fluoro-2-(((2R,7aS)-2-fluorotetrahydro-1H-pyrrolizin-7a(5H)-yl)methoxy)pyrido[4,3-d]pyrimidin-4-yl)-5,6,7,8-tetrahydro-4H-pyrazolo[1,5-a][1,4]diazepin-2-yl)(4-methylpiperazin-1-yl)methanone]
24 nM	11 nM	6 nM	68 nM	8290 nM	95 nM	407 nM	261 nM	245 nM	525 nM	117 nM	CCc1c(F)ccc2cc(O)cc(-c3ncc4c(N5CCOCC(C)(CO)C5)nc(OC[C@@]56CCCN5C[C@H](F)C6)nc4c3F)c12 (stereo partly drawn) [Example 496, 5-ethyl-6-fluoro-4-(8-fluoro-2-(((2R,7aS)-2-fluorotetrahydro-1H-pyrrolizin-7a(5H)-yl)methoxy)-4-(6-(hydroxymethyl)-6-methyl-1,4-oxazepan-4-yl)pyrido[4,3-d]pyrimidin-7-yl)naphthalen-2-ol]
5 nM	3 nM	3 nM	13 nM	≥ 10000 nM	47 nM	64 nM	48 nM	66 nM	168 nM	21 nM	CCc1c(F)ccc2cc(O)cc(-c3ncc4c(N5CCOC[C@@]6(C5)CC6(F)F)nc(OC[C@@]56CCCN5C[C@H](F)C6)nc4c3F)c12 [Example 498, 4-(4-((S)-1,1-difluoro-5-oxa-8-azaspiro[2.6]nonan-8-yl)-8-fluoro-2-(((2R,7aS)-2-fluorohexahydro-1H-pyrrolizin-7a-yl)methoxy)pyrido[4,3-d]pyrimidin-7-yl)-5-ethyl-6-fluoronaphthalen-2-ol]
